The IC50 is the concentration that inhibits the measured activity by half. As a reminder, the EC50 is the concentration needed to bring the measured effect to its halfway point. The pEC50 is the negative decadic logarithm of the EC50, by convention in mol/L.

pEC50: −log10 of the molar value. Where two headings read alike, the source gives them in different places.

Data set [1] has as its system SK-BR-3 cells. The data set can be described thus: SKBR3 cell-based anti-proliferation / viability assay (CellTiter-Glo). Further details: species or system human. Conditions: for pEC50: SK-BR-3, read-out: SKBR3 EC50. The method, then:
(§1) The anti-Her2 viability assay protocol is following.
(§2) 0.1% BSA was added to the Opti-MEM reduced serum media [Gibco, cat #31985-070]. This assay media was used for the dilution of ADC and free drug.
(§3) Cells were seeded in their growth media into 96 well plates (Thermo #136101) one day prior to adding ADCs: 1000/well SKBR3 cells in 80 uL media (target positive cells), 1000/well NCI-N87 cells in 80 uL media (target positive cells), 1000/well Calu-3 in 80 uL media (target positive cells), and 800/well NCI-H1975 cells in 80ul media (target negative cells).
(§4) Serial dilutions of free drug in 100% DMSO (1:4 10 pts starting from 100 uM) were prepared. Serially diluted payload was transferred into Opti-Mem with 0.1% BSA (10 uL into 990 uL media). Serial dilutions of ADCs/isotype controls at 1:4 in Opti-Mem with 0.1% BSA (starting from 5×1000 nM) were prepared. 20ul assay media diluted ADC/isotype conjugates as well as free drug were transferred to above cells. The plates were incubated at 37° C., 5% CO2 for 6 days. Plates were developed by adding 100ul CellTiter Glo 2.0. RT 5-10 min. Plates were read with Envision plate reader. Data was analyzed using Prism. Only inner 60 well are used for the assay. The edge wells were filled with media to prevent dry out.
The cell line used in the anti-proliferation assays was SK-BR-3, a human breast, adenocarcinoma (pleural effusion) cell line; The cells were grown in McCoy's 5a Medium+10% FBS. To run the assay, the cells (80 μl, 1000 cells) were added to each well in a 96-well plate and incubated for 24 hours at 37° C. with CO2. Next, the cells were treated with test compounds (20 μl) at various concentrations in appropriate cell culture medium (total volume, 0.1 mL). The control wells contain cells and the medium but lack the test compounds. The plates were incubated for 144 hours at 37° C. with CO2. CTG reagent was then added to the wells (100 μl). After the plates were shaken for 10 min and then incubated for 10 min at room temperature, paste the clear bottom with white back seal and record luminescence with Envision. The inhibition % was calculated according to the following equation: inhibition %=[1-(assay-blank)/(control-blank)]×100.

Data set [2] is described as follows: Mouse whole blood stability test. Conditions: for % of test compound in whole blood (initial 1 uM as 100%): 37° C. It counts as in vitro ADME. The method, then: In vitro stability of Linker-Prodrug in mouse whole blood Scheme 15. Metabolism of LP1 (M2980) in whole blood.
Stock solution of test compound was provided in 100% DMSO. The stock solution for each compound was diluted into 500 μM with mixture of 50% acetonitrile, then diluted into mouse blood to achieve a final concentration of 1.0 μM. 1.0 μM of test compound in duplicate was incubated in blood at 37° C. Aliquots of 50 uL sample was collected at 0, 15, 30, 60, 120, 240, 480 min, and 24 hours. Reactions were terminated at various time points (0, 15, 30, 60, 120, 240, 480 min, 24 hours) by adding 200 μL of ice-cold acetonitrile containing internal standard with 1% formic acid and then ultrasound for 30 seconds. Plate was centrifuged (4000 rpm, 15 min). 50 μL of supernatants were transferred into a daughter plate containing 200 μL of H2O in each well. The samples were mixed well and analyzed with UPLC-MS/MS.
A Waters liquid chromatographic system was used. Detection was performed on AP14000 Q-Trap and AP15500 mass spectrometer equipped with TurbolonSpray (ESI) Interface (Applied Biosystems, Concord, Ontario, Canada). Analyst 1.5 and 1.6.2 software packages (Applied Biosystems) were used to control the LC-MS/MS system, as well as for data acquisition and processing.
Chromatographic separation was achieved on the Wates BEH C18 column (50*2.1 mm ID, 1.7 μm). The column temperature was maintained at ambient temperature (25° C.). The flow rate was maintained at 0.6 mL/min and the following mobile phases were used: water (0.1% formic acid, v/v) (phase A) and acetonitrile (0.1% formic acid, v/v) (phase B).
Test compounds (1.0 μM) were incubated in blood at 37° C. in duplicate. Aliquots of 50 uL sample was collected at 0, 15, 30, 60, 120, 240, 480 min, and 24 hours. Reactions were terminated at various time points (0, 15, 30, 60, 120, 240, 480 min, 24 hours by adding 200 μL of ice-cold acetonitrile containing internal standard with 1% formic acid, then ultrasound for 30 seconds. The plate was centrifuged (4000 rpm, 15 min). 50 μL of supernatants were transferred into a daughter plate containing 200 μL of water in each well. Samples were mixed well and analyzed with UPLC-MS/MS.
The % was calculated based on initial 1 uM as 100% and the standard concentration curve.

Data set [3] has as its system NCI-N87 cells. The data set can be described thus: anti-Her2 viability assay, NCI-N87 cells (target positive). The data set is classed as cell-based. Conditions: Homo sapiens, NCI-N87, 144 h, read-out: N87 IC50 (nM). The method, then: as §1, §2, §3, §4
The subject of data set [4] is Calu-3. Kind of data set: anti-Her2 viability assay, Calu-3 cells (target positive). It counts as cell-based. The method, then: as §1, §2, §3, §4
The test system of data set [5] is NCI-H1975 cells. Kind of data set: anti-Her2 viability assay, NCI-H1975 cells (target negative). It counts as cell-based. The method, then: as §1, §2, §3, §4
Data set [6] deals with JIMT-1. Kind of data set: in vitro cell killing activity, JIMT-1 cells (CellTiter Glo viability). It counts as cell-based. The method, then:
as §4

A short description of data set [7]: in vitro. Conditions: human, plasma.

Take `CC[C@@]1(O)C(=O)OCc2c1cc1n(c2=O)Cc2c-1nc1cc(F)c(C)c3c1c2[C@@H](NC(=O)CO)CC3` [Dxd, reference compound]: the IC50 in data set [1] (Homo sapiens, SK-BR-3, 144 h, read-out: SKBR3 IC50 (nM)) came out at 1.02 nM; in data set [3] it was 2.59 nM; in data set [4] (Homo sapiens, Calu-3, 144 h, read-out: Calu-3 IC50 (nM)) it was 1.3 nM; in data set [5] (Homo sapiens, NCI-H1975, 144 h, read-out: H1975 IC50 (nM)), 3.45 nM; in data set [6] (Homo sapiens, JIMT-1, read-out: JIMT-1 IC50 (nM)), 4.41 nM. In addition, the EC50 in data set [1] (Homo sapiens, SK-BR-3, read-out: SKBR3 EC50 (nM)) was 1.63 nM. Moreover, the “SKBR3 % Kill” value in data set [1] (SKBR3 target positive cells, 6 days) was 97.0%. In addition, the “% of test compound in whole blood (initial 1 uM as 100%)” value in data set [2] (mouse blood, 0 hr) worked out at 100.0%; in data set [2] (mouse blood, 0.25 hr), 95.9%; in data set [2] (mouse blood, 0.5 hr), 103.6%; in data set [2] (mouse blood, 1 hr), 111.9%; in data set [2] (mouse blood, 2 hr), 97.6%; in data set [2] (mouse blood, 4 hr), 94.8%. The “% of test compound in whole blood (initial 1 uM as 100%)” value in data set [2] (mouse blood, 8 hr) stood at 94.2%; in data set [2] (mouse blood, 24 hr), 94.2%. Also, the “Mouse blood stability % Remaining at 24 h” value in data set [2] (mouse blood) turned out to be 94.8%. The half-life at 1 μM in data set [2] (mouse, blood, read-out: Mouse blood stability T1/2 (converted)) was 62.6 h. For the same compound, in data set [4] (Calu-3 target positive cells, 6 days), the “Calu-3 % Kill” value came out at 94.9%. Besides, in data set [5] (NCI-H1975 target negative cells, 6 days), the “H1975 % Kill” value worked out at 99.3%. Also, the “JIMT-1 % Kill” value in data set [6] (JIMT-1 cells) came to 94.5%.

Turning to `CC[C@@]1(O)C(=O)OCc2c1cc1n(c2=O)Cc2c-1nc1cc(F)c(C)c3c1c2[C@@H](NC(=O)COCNC(=O)[C@@H](N)CCCCN)CC3` [P5, (2S)-2,6-diamino-N-[({[(10S,23S)-10-ethyl-18-fluoro-10-hydroxy-19-methyl-5,9-dioxo-8-oxa-4,15-diazahexacyclo[14.7.1.0^2,14.0^4,13.0^6,11.0^20,24]tetracosa-1,6(11),12,14,16,18,20(24)-heptaen-23-yl]carbamoyl}methoxy)methyl]hexanamide], the “Human plasma stability % Remaining at 24 h” value came to 69.7%. The pEC50 in data set [1] (Homo sapiens) is 8.35. Further, the half-life at 1 μM in data set [2] (mouse, blood) was 0.4 h. In addition, the “Mouse blood stability % Remaining at 24 h” value in data set [2] (mouse, blood, 1 μM) turned out to be 1.3%. In data set [7], this compound had a half-life of 49.4 h.

Turning to `CC[C@@]1(O)C(=O)OCc2c1cc1n(c2=O)Cc2c-1nc1cc(F)c(C)c3c1c2[C@@H](NC(=O)COCNC(=O)[C@@H](N)CCCCN=[N+]=[N-])CC3` [P6, (2S)-2-amino-6-azido-N-[({[(10S,23S)-10-ethyl-18-fluoro-10-hydroxy-19-methyl-5,9-dioxo-8-oxa-4,15-diazahexacyclo[14.7.1.0^2,14.0^4,13.0^6,11.0^20,24]tetracosa-1,6(11),12,14,16,18,20(24)-heptaen-23-yl]carbamoyl}methoxy)methyl]hexanamide], the “Human plasma stability % Remaining at 24 h” value worked out at 59.0%. For the same compound, in data set [1] (Homo sapiens), the pEC50 was 8.69. The compound further showed a half-life at 1 μM in data set [2] (mouse, blood) of 0.2 h. Moreover, the “Mouse blood stability % Remaining at 24 h” value in data set [2] (mouse, blood, 1 μM) worked out at 3.3%. In data set [7], this compound gave a half-life of 28.2 h.

With `CC[C@@]1(O)C(=O)OCc2c1cc1n(c2=O)Cc2c-1nc1cc(F)c(C)c3c1c2[C@@H](NC(=O)COCNC(=O)CNC(=O)CN)CC3` [P8, 2-amino-N-({[({[(10S,23S)-10-ethyl-18-fluoro-10-hydroxy-19-methyl-5,9-dioxo-8-oxa-4,15-diazahexacyclo[14.7.1.0^2,14.0^4,13.0^6,11.0^20,24]tetracosa-1,6(11),12,14,16,18,20(24)-heptaen-23-yl]carbamoyl}methoxy)methyl]carbamoyl}methyl)acetamide], the “Human plasma stability % Remaining at 24 h” value worked out at 86.0%. Also, the pEC50 in data set [1] (Homo sapiens) was 7.51. The half-life at 1 μM in data set [2] (mouse, blood) was 2.9 h. The “Mouse blood stability % Remaining at 24 h” value in data set [2] (mouse, blood, 1 μM) is recorded as 46.9%. The half-life in data set [7] is 144 h.

As to `CC[C@@]1(O)C(=O)OCc2c1cc1n(c2=O)Cc2c-1nc1cc(F)c(C)c3c1c2[C@@H](NC(=O)COCN(C)C(=O)CN)CC3` [P9, 2-amino-N-[({[(10S,23S)-10-ethyl-18-fluoro-10-hydroxy-19-methyl-5,9-dioxo-8-oxa-4,15-diazahexacyclo[14.7.1.0^2,14.0^4,13.0^6,11.0^20,24]tetracosa-1,6(11),12,14,16,18,20(24)-heptaen-23-yl]carbamoyl}methoxy)methyl]-N-methylacetamide], the pEC50 in data set [1] (Homo sapiens) is 7.16.

`CC[C@@]1(O)C(=O)OCc2c1cc1n(c2=O)Cc2c-1nc1cc(F)c(C)c3c1c2[C@@H](NC(=O)COCNC(=O)C(C)(C)N)CC3` [P11, 2-amino-N-[({[(10S,23S)-10-ethyl-18-fluoro-10-hydroxy-19-methyl-5,9-dioxo-8-oxa-4,15-diazahexacyclo[14.7.1.0^2,14.0^4,13.0^6,11.0^20,24]tetracosa-1,6(11),12,14,16,18,20(24)-heptaen-23-yl]carbamoyl}methoxy)methyl]-2-methylpropanamide]: in data set [1] (Homo sapiens), the pEC50 was 7.56.

`CC[C@@]1(O)C(=O)OCc2c1cc1n(c2=O)Cc2c-1nc1cc(F)c(C)c3c1c2[C@@H](NC(=O)COCNC(=O)[C@H](N)Cc1ccccc1)CC3` [P12, (2R)-2-amino-N-[({[(10S,23S)-10-ethyl-18-fluoro-10-hydroxy-19-methyl-5,9-dioxo-8-oxa-4,15-diazahexacyclo[14.7.1.0^2,14.0^4,13.0^6,11.0^20,24]tetracosa-1,6(11),12,14,16,18,20(24)-heptaen-23-yl]carbamoyl}methoxy)methyl]-3-phenylpropanamide]: the negative logarithm of the EC50 (pEC50) in data set [1] (Homo sapiens) was 7.81.

These data come from patent US20240269308A1, “PRODRUGS OF TOPOISOMERASE I INHIBITOR FOR ADC CONJUGATIONS AND METHODS OF USE THEREOF” (priority 2022, published 2024).
